Data taken from article PMC10960024, “Diindoles produced from commensal microbiota metabolites function as endogenous CAR/Nr1i3 ligands” (Nature Communications, 2024).

What was measured:
GST-hCAR-LBD = target: T1, GST-hCAR-LBD (Homo sapiens, UniProt Q14994); test: LanthaScreen TR-FRET PGC1α coactivator recruitment assay; assay type: biochemical
T1 construct: GST-hCAR-LBD (5 nM), terbium-labeled anti-GST antibody (5 nM); purchased Invitrogen A15141
T1 sequence (Q14994 109-352 limits assumed): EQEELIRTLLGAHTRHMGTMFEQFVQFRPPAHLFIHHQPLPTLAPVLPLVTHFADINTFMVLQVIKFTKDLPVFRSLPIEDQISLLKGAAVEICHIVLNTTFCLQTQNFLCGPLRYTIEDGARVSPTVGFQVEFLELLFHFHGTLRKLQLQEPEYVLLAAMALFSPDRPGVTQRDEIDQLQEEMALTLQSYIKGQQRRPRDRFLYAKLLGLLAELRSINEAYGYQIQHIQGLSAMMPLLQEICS
Procedure: LanthaScreen^TM TR-FRET hCAR coactivator assays were performed according to manufacturer’s instructions (Invitrogen, A15141). Test compounds were incubated for 2 h at room temperature with GST-hCAR-LBD (5 nM), terbium-labeled anti-GST antibody (5 nM), and Fluorescein-PGC1α coactivator peptide (125 nM). Incubations were performed in four technical replicates. TR-FRET emissions were measured using a Tecan Infinite F200 Fluorescence Microplate Reader. Results were expressed as the ratio of fluorescence intensity at 520 nm (fluorescein emission excited by terbium emissions) and 495 nm (terbium emissions).

hCAR = target: T2, hCAR (Homo sapiens, UniProt Q14994); test: Bottom-up HDX-MS of hCAR with ligand; assay type: binding; details: 100 µM ligand
T2 construct: The human CAR LBD (Lys^108 – Ser^352) was amplified by PCR from cDNA; HIS6; made in house; host or cells: E. coli BL21(DE3)
T2 sequence (Q14994 108-352): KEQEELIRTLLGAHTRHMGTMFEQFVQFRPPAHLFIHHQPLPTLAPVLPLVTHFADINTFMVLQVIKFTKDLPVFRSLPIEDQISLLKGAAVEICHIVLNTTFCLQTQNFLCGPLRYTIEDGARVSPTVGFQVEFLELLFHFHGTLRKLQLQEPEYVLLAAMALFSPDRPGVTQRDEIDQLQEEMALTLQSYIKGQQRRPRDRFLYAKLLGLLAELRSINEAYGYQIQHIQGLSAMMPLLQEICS
Procedure: Human CAR protein was prepared at 10 µM in 100 mM ammonium acetate pH 7.25 and diluted into either equilibration buffer (10 mM phosphate buffer, pH 7.5) or deuterated reaction buffer (10 mM phosphate buffer, 150 mM NaCl, pH 7.5 in D2O). After labeling times of 1, 10 or 30 min at 25 °C, samples were mixed with equal volumes of quench buffer (100 mM phosphate buffer, pH 2.5) at 0 °C. […] HDX-MS was performed using a commercial Waters HDX system (M-class ACQUITY UPLC and Water Cyclic IMS Mass Spectrometer). Leucine enkephalin was used for mass correction, and all time points were carried out in triplicate. Samples were digested using an Enzymate BEH Pepsin column (2.1 × 30 mm, Waters) at 15 °C. Peptides were desalted on an ACQUITY UPLC BEH C18 VanGuard Pre-column (2.1 × 5 mm, Waters) and separated using an ACQUITY UPLC BEH C18 column (100 × 1 mm, Waters). ProteinLynx Global server (PLGS) and DynamX software was used for peptide identification and deuterium uptake analysis, respectively. PyMOL 2.5 was used for structural visualization.

## CC(c1c[nH]c2ccccc12)c1c[nH]c2ccccc12 [DIE, 3,3’-diindolylethane]
GST-hCAR-LBD
  PGC1α cofactor recruitment: does not
hCAR
  deuterium uptake change, residues 235–243 (H12/AF2): increased uptake
  deuterium uptake difference, amino acids 217–234 (H11): < 10%
  difference in deuterium uptake compared to apo hCAR, amino acids 51–65 (H3): > 20%
